Measurements as given in the NIST ThermoML archive (doi:10.1016/j.tca.2008.02.023).
± gives the expanded uncertainty stated by the source.

Assay: excess molar enthalpy (molar enthalpy of mixing); xn = mol fraction of the nth substance listed
Settings: 101 kPa, Liquid, Calvet calorimetry

[Bi] [bismuth] + [Cu]
Settings	excess molar enthalpy [kcal/mol]
1073.2 K, x2 = 0.0427	0.194 ± 0.00215
1073.2 K, x2 = 0.0749	0.337 ± 0.00359
1073.2 K, x2 = 0.0819	0.358 ± 0.00382
1073.2 K, x2 = 0.1184	0.493 ± 0.00526
1073.2 K, x2 = 0.1417	0.584 ± 0.00598
1073.2 K, x2 = 0.1524	0.603 ± 0.00621
1073.2 K, x2 = 0.1852	0.697 ± 0.00717
1073.2 K, x2 = 0.2051	0.763 ± 0.00789
1073.2 K, x2 = 0.216	0.771 ± 0.00789
1073.2 K, x2 = 0.2446	0.834 ± 0.0086
1073.2 K, x2 = 0.2648	0.887 ± 0.00908
1073.2 K, x2 = 0.2722	0.891 ± 0.00908
1073.2 K, x2 = 0.2982	0.937 ± 0.00956
1073.2 K, x2 = 0.3165	0.973 ± 0.01
1073.2 K, x2 = 0.3228	0.974 ± 0.01
1073.2 K, x2 = 0.3461	1 ± 0.0103
1073.2 K, x2 = 0.3622	1.02 ± 0.0105
1073.2 K, x2 = 0.3683	1.02 ± 0.0105
1073.2 K, x2 = 0.3893	1.04 ± 0.0108
1073.2 K, x2 = 0.4032	1.04 ± 0.0105
1273.2 K, x2 = 0.1194	0.496 ± 0.00526
1273.2 K, x2 = 0.2184	0.84 ± 0.0086
1273.2 K, x2 = 0.2984	1.04 ± 0.0105
1273.2 K, x2 = 0.3648	1.15 ± 0.0117
1273.2 K, x2 = 0.4198	1.21 ± 0.0124
1273.2 K, x2 = 0.47	1.23 ± 0.0127
1273.2 K, x2 = 0.5122	1.24 ± 0.0127
1273.2 K, x2 = 0.5486	1.22 ± 0.0124
1273.2 K, x2 = 0.5801	1.2 ± 0.0122
1273.2 K, x2 = 0.6078	1.18 ± 0.012
1273.2 K, x2 = 0.632	1.16 ± 0.0117
1273.2 K, x2 = 0.6535	1.13 ± 0.0115
1273.2 K, x2 = 0.673	1.1 ± 0.0112
1273.2 K, x2 = 0.6904	1.07 ± 0.011
1273.2 K, x2 = 0.7077	1.04 ± 0.0105
1273.2 K, x2 = 0.724	1.01 ± 0.0103
1273.2 K, x2 = 0.7393	0.985 ± 0.01
1273.2 K, x2 = 0.7532	0.956 ± 0.0098
1273.2 K, x2 = 0.7659	0.924 ± 0.00956
1273.2 K, x2 = 0.7773	0.897 ± 0.00932
1273.2 K, x2 = 0.7884	0.874 ± 0.00908
1273.2 K, x2 = 0.7985	0.859 ± 0.00884
1273.2 K, x2 = 0.8078	0.828 ± 0.0086
1273.2 K, x2 = 0.8164	0.802 ± 0.00837
1273.2 K, x2 = 0.8244	0.777 ± 0.00789
